Experimental data taken from ChEMBL document CHEMBL1154038, “Discovery of orally active, pyrrolidinone-based progesterone receptor partial agonists” (Bioorg Med Chem Lett, 2009).

Legend:
[1] = Half life in rat at 1.3 mg/kg, po; format: ADME, organism-based; design: dose 1.3 mg/kg, route oral; conditions: in vivo
[2] = Plasma clearance in rat at 1.3 mg/kg, po; format: ADME, organism-based; design: dose 1.3 mg/kg, route oral
[3] = Volume of distribution at steady state in rat at 1 mg/kg, iv or 1.3 mg/kg, po; format: ADME, organism-based; conditions: in vivo, read-out: Vdss
[4] = Cmax in rat at 1.3 mg/kg, po; format: ADME, organism-based; design: dose 1.3 mg/kg, route oral; conditions: in vivo
[5] = Oral bioavailability in rat at 1.3 mg/kg; format: ADME, organism-based; conditions: in vivo
[6] = AUC (0 to t) in rat at 1.3 mg/kg, po; format: ADME, organism-based; design: dose 1.3 mg/kg, route oral; conditions: plasma
[7] = AUC (0 to t) in monkey at 1.6 mg/kg, po; format: ADME, organism-based, Macaca mulatta; design: dose 1.6 mg/kg, route oral; conditions: rhesus monkey, plasma
[8] = AUC (0 to t) in rat at 2.2 mg/kg, po; format: ADME, organism-based; design: dose 2.2 mg/kg, route oral; conditions: plasma
[9] = Half life in rat at 2.2 mg/kg, po; format: ADME, organism-based; design: dose 2.2 mg/kg, route oral; conditions: in vivo
[10] = Volume of distribution at steady state in monkey at 1 mg/kg, iv or 1.6 mg/kg, po; format: ADME, organism-based, Macaca mulatta; conditions: rhesus monkey, in vivo, read-out: Vdss
[11] = Oral bioavailability in rat at 2.2 mg/kg; format: ADME, organism-based; conditions: in vivo
[12] = Plasma clearance in rat at 2.2 mg/kg, po; format: ADME, organism-based; design: dose 2.2 mg/kg, route oral
[13] = Cmax in rat at 2.2 mg/kg, po; format: ADME, organism-based; design: dose 2.2 mg/kg, route oral; conditions: in vivo
[14] = Oral bioavailability in monkey at 1.6 mg/kg, po; format: ADME, organism-based, Macaca mulatta; conditions: rhesus monkey, in vivo
[15] = Cmax in monkey at 1.6 mg/kg, po; format: ADME, organism-based, Macaca mulatta; design: dose 1.6 mg/kg, route oral; conditions: rhesus monkey, in vivo
[16] = Volume of distribution at steady state in rat at 1 mg/kg, iv or 2.2 mg/kg, po; format: ADME, organism-based; conditions: in vivo, read-out: Vdss
[17] = Plasma clearance in monkey at 1.6 mg/kg, po; format: ADME, organism-based, Macaca mulatta; design: dose 1.6 mg/kg, route oral; conditions: rhesus monkey
[18] = Half life in monkey at 1.6 mg/kg, po; format: ADME, organism-based, Macaca mulatta; design: dose 1.6 mg/kg, route oral; conditions: rhesus monkey, in vivo
[19] = Half life in rat at 0.12 mg/kg, po; format: ADME, organism-based; design: dose 0.12 mg/kg, route oral; conditions: in vivo
[20] = Plasma clearance in rat at 0.12 mg/kg, po; format: ADME, organism-based; design: dose 0.12 mg/kg, route oral
[21] = Oral bioavailability in rat at 0.12 mg/kg; format: ADME, organism-based; conditions: in vivo
[22] = Volume of distribution at steady state in rat at 1.1 mg/kg, iv or 0.12 mg/kg, po; format: ADME, organism-based; conditions: in vivo, read-out: Vdss
[23] = Cmax in rat at 0.12 mg/kg, po; format: ADME, organism-based; design: dose 0.12 mg/kg, route oral; conditions: in vivo
[24] = AUC (0 to t) in rat at 0.12 mg/kg, po; format: ADME, organism-based; design: dose 0.12 mg/kg, route oral; conditions: plasma
[25] = Cmax in rat at 2 mg/kg, po; format: ADME, organism-based; design: dose 2 mg/kg, route oral; conditions: in vivo
[26] = Cmax in monkey at 1.3 mg/kg, po; format: ADME, organism-based, Macaca mulatta; design: dose 1.3 mg/kg, route oral; conditions: rhesus monkey, in vivo
[27] = Oral bioavailability in rat at 2 mg/kg; format: ADME, organism-based; conditions: in vivo
[28] = Volume of distribution at steady state in rat at 1.1 mg/kg, iv or 2 mg/kg, po; format: ADME, organism-based; conditions: in vivo, read-out: Vdss
[29] = AUC (0 to t) in monkey at 1.3 mg/kg, po; format: ADME, organism-based, Macaca mulatta; design: dose 1.3 mg/kg, route oral; conditions: rhesus monkey, plasma
[30] = Plasma clearance in rat at 2.0 mg/kg, po; format: ADME, organism-based; design: dose 2 mg/kg, route oral
[31] = Plasma clearance in monkey at 1.3 mg/kg, po; format: ADME, organism-based, Macaca mulatta; design: dose 1.3 mg/kg, route oral; conditions: rhesus monkey
[32] = Oral bioavailability in monkey at 1.3 mg/kg, po; format: ADME, organism-based, Macaca mulatta; conditions: rhesus monkey, in vivo
[33] = Half life in rat at 2 mg/kg, po; format: ADME, organism-based; design: dose 2 mg/kg, route oral; conditions: in vivo
[34] = Half life in monkey at 1.3 mg/kg, po; format: ADME, organism-based, Macaca mulatta; design: dose 1.3 mg/kg, route oral; conditions: rhesus monkey, in vivo
[35] = AUC (0 to t) in rat at 2 mg/kg, po; format: ADME, organism-based; design: dose 2 mg/kg, route oral; conditions: plasma
[36] = Volume of distribution at steady state in monkey at 1 mg/kg, iv or 1.3 mg/kg, po; format: ADME, organism-based, Macaca mulatta; conditions: rhesus monkey, in vivo, read-out: Vdss

CCN1C[C@@H](N(Cc2cc(F)ccc2Cl)c2ccc(C#N)c(Cl)c2)CC1=O
half-life [1]: 2 h | CL/F [2]: 75 mL/min/kg | Vd [3]: 15 L/kg | Cmax [4]: 97 ng/mL | bioavailability [5]: 100% | AUC(0-t) [6]: 290 ng·h/mL

CN1C[C@@H](N(Cc2cccc(F)c2F)c2ccc(C#N)c(Cl)c2)CC1=O
AUC(0-t) [7]: 270 ng·h/mL | AUC(0-t) [8]: 2300 ng·h/mL | half-life [9]: 6.2 h | Vd [10]: 1.7 L/kg | bioavailability [11]: 100% | CL/F [12]: 16 mL/min/kg | Cmax [13]: 660 ng/mL | bioavailability [14]: 15% | Cmax [15]: 92 ng/mL | Vd [16]: 3.4 L/kg | CL/F [17]: 110 mL/min/kg | half-life [18]: 1.4 h

CC(C)N1C[C@@H](N(Cc2ccccc2Cl)c2ccc(C#N)c(Cl)c2)CC1=O
half-life [19]: 5.8 h | CL/F [20]: 40 mL/min/kg | bioavailability [21]: 100% | Vd [22]: 42 L/kg | Cmax [23]: 10 ng/mL | AUC(0-t) [24]: 30 ng·h/mL

CCN1C[C@@H](N(Cc2cc(Cl)ccc2Cl)c2ccc(C#N)c(Cl)c2)CC1=O
Cmax [25]: 84 ng/mL | Cmax [26]: 15 ng/mL | bioavailability [27]: 100% | Vd [28]: 35 L/kg | AUC(0-t) [29]: 32 ng·h/mL | CL/F [30]: 230 mL/min/kg | CL/F [31]: 480 mL/min/kg | bioavailability [32]: 4.9% | half-life [33]: 1.8 h | half-life [34]: 1.5 h | AUC(0-t) [35]: 150 ng·h/mL | Vd [36]: 2.8 L/kg
